The assay has as its target T1, Renin (Homo sapiens, UniProt P00797).
T1 sequence (P00797 whole entry): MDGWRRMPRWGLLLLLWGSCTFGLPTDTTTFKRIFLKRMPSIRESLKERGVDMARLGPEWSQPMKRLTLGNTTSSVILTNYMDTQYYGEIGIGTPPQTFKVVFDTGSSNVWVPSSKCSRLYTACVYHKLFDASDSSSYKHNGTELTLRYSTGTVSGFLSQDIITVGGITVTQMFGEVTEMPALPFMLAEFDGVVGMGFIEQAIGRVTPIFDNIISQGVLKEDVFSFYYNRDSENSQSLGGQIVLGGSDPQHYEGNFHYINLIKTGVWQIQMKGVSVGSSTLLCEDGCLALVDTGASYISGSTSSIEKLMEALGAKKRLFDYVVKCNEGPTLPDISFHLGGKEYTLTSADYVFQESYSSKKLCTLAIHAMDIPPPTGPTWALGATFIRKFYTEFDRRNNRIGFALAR
As to the kind of experiment: Concentration required to inhibit renin activity by 50%.

Each structure is given as a SMILES string.

Compound `COc1ccccc1COCCCOc1ccc(N2C(=O)CNC[C@H]2COc2ccc3cccnc3c2)cc1` returned a 50% inhibitory concentration (IC50) of 860 nM.
`COc1ccccc1COCCCOc1ccc(N2C(=O)CNC[C@H]2COc2ccc3c(c2)NCCC3)cc1` had an IC50 of 23 nM.
As for `COc1ccccc1COCCCOc1ccc(N2C(=O)CNC[C@@H]2COc2ccc3c(c2)NCCC3)cc1`, the figure is 120 nM; as for `COc1ccccc1COCCCOc1ccc(N2C(=O)CNC[C@H]2COc2ccc3c(c2)N(CCO)CCC3)cc1`, 33 nM.
The same measure for `COc1ccccc1COCCCOc1ccc(N2C(=O)CNC[C@H]2COc2ccc3c(c2)N(CCCO)CCC3)cc1`: 35 nM; for `COCCCN1C(=O)CCc2ccc(OC[C@H]3CNCC(=O)N3c3ccc(OCCCOCc4ccccc4OC)cc3)cc21`: 7 nM.
The same measure for `COCCCN1C(=O)CCc2ccc(OC[C@@H]3CNCC(=O)N3c3ccc(OCCCOCc4ccccc4OC)cc3)cc21`: 17 nM.

For the origin of these results see ChEMBL document CHEMBL1144390, “Equipotent activity in both enantiomers of a series of ketopiperazine-based renin inhibitors” (Bioorg Med Chem Lett, 2005).
